# Experimental data published in patent US4548819A, “Derivatives of 9-(2-hydroxyethoxymethyl) guanine” (priority 1983, dated 1985).
# Structures can show the parent of a compound that is named as a salt.
# Experiments:
# HSV-1 (KOS) = test: Antiviral activity in vitro: retardation of virus-induced cytopathogenicity in primary rabbit kidney cells, HSV-1 (KOS); type: cell-based, herpes simplex virus, Type 1; details: Human alphaherpesvirus 1, average of 2 or 3 determinations, read-out: Minimum Inhibitory Concentration (concentration necessary to reduce by 50% the cytopathogenicity induced by the virus)
# Excerpt: (§1) In a series of biological tests an investigation was made of the activity of the compounds of Examples 1-3 in comparison with acyclovir against various viruses in cell cultures of primary rabbit kidney cells.
# (§2) The viruses used were: herpes simplex type 1 (strains KOS, Mc Intyre and F) and herpes simplex type 2 (strains Lyons, G and 196).
# (§3) The origin of the six herpes simplex strains and the method for the measurement of the retardation of the cytopathogenicity induced by the virus are described by E. de Clercq et al. in J. Infect Dis., 141, 563 (1980).
# (§4) The results of the tests are reproduced in the following table, where they are expressed in the minimum inhibitory concentration, that is to say the concentration (in μg/ml) which is necessary to reduce by 50% the cytopathogenicity induced by the virus in the cell culture. In all cases average values of 2 or 3 separate determinations are given.
# herpes viruses = details: H. J. Schaeffer et al, Nature, 272, 583-585 (1978); cited from earlier work
# HSV-1 (F) = test: Antiviral activity in vitro: retardation of virus-induced cytopathogenicity in primary rabbit kidney cells, HSV-1 (F); type: cell-based, herpes simplex virus, Type 1; details: Human alphaherpesvirus 1, average of 2 or 3 determinations, read-out: Minimum Inhibitory Concentration (concentration necessary to reduce by 50% the cytopathogenicity induced by the virus)
# Excerpt: as §1, §2, §3, §4
# HSV-1 (McIntyre) = test: Antiviral activity in vitro: retardation of virus-induced cytopathogenicity in primary rabbit kidney cells, HSV-1 (McIntyre); type: cell-based, herpes simplex virus, Type 1; details: Human alphaherpesvirus 1, average of 2 or 3 determinations, read-out: Minimum Inhibitory Concentration (concentration necessary to reduce by 50% the cytopathogenicity induced by the virus)
# Excerpt: as §1, §2, §3, §4
# HSV-2 (Lyons) = test: Antiviral activity in vitro: retardation of virus-induced cytopathogenicity in primary rabbit kidney cells, HSV-2 (Lyons); type: cell-based, herpes simplex virus, Type 2; details: Human alphaherpesvirus 2, average of 2 or 3 determinations, read-out: Minimum Inhibitory Concentration (concentration necessary to reduce by 50% the cytopathogenicity induced by the virus)
# Excerpt: as §1, §2, §3, §4
# HSV-2 (196) = test: Antiviral activity in vitro: retardation of virus-induced cytopathogenicity in primary rabbit kidney cells, HSV-2 (196); type: cell-based, herpes simplex virus, Type 2; details: Human alphaherpesvirus 2, average of 2 or 3 determinations, read-out: Minimum Inhibitory Concentration (concentration necessary to reduce by 50% the cytopathogenicity induced by the virus)
# Excerpt: as §1, §2, §3, §4
# HSV-2 (G) = test: Antiviral activity in vitro: retardation of virus-induced cytopathogenicity in primary rabbit kidney cells, HSV-2 (G); type: cell-based, herpes simplex virus, Type 2; details: Human alphaherpesvirus 2, average of 2 or 3 determinations, read-out: Minimum Inhibitory Concentration (concentration necessary to reduce by 50% the cytopathogenicity induced by the virus)
# Excerpt: as §1, §2, §3, §4
# HSV-1 (strain McIntyre) = test: Antiviral activity in vivo: HSV-1 stromal keratitis in rabbits, eye drops
# Protocol: The in vivo antiviral activity of the compound of Example 1 was compared with the known antiviral bromovinyldeoxyuridine.
# Eye drops containing 0.5% (w/v) of bromovinyldeoxyuridine or 1% w/v of compound of Example 1 were prepared in an isotonic borate buffer containing 1.52 g boric acid, 0.008 g borax and 0.01 g benzalkoniumchloride in 100 ml distilled water. The pH of the solution was 5.7. The vehicle alone without any antiviral ingredients was used as placebo. The eye drops were coded.
# A cross-breed of California albino and Dendermonde white rabbits, weighing between 1.5 and 2 kg, were used.
# Thirty rabbits were used to produce stromal keratitis according to the technique of McNeill and Kaufman (Arch. Ophthalmol. 97: 727-729, 1979). Rabbits were anesthetized by a subcutaneous injection of fentanyl citrate at 1 ml/kg. A 0.2 ml virus suspension, containing 10^4.5 plaque-forming units of HSV-1 (strain McIntyre) per ml, was injected into the central corneal stroma of both eyes.
# The rabbits were numbered serially and allocated at random to three groups of […] rabbits each. Treatment consisted of administration of eye drops containing the compound of Example 1, bromovinyldeoxyuridine, or placebo eye drops. Treatment was started one day after virus inoculation. One drop of the eye drop formulation was instiled into the eye at hourly intervals, nine times as day. Therapy was continued for 5 consecutive days. Both eyes of each rabbit received the same modification.
# The severity of keratitis was evaluated daily by the same person using a slitlamp. White illumination was used to examine the corneal stroma and anterior chamber structures. One percent fluorescein sodium eye drops and a cobalt blue filter were employed to judge epithelial keratitis and corneal ulceration.
# [1] = eye drops, Example 1 at 1% w/v or bromovinyldeoxyuridine at 0.5% w/v
# [2] = iritis accompanying stromal HSV-1 keratitis, eye drops
Structure (SMILES),IC50 (HSV-1 (KOS)),antiviral activity (herpes viruses),IC50 (HSV-1 (F)),IC50 (HSV-1 (McIntyre)),IC50 (HSV-2 (Lyons)),IC50 (HSV-2 (196)),IC50 (HSV-2 (G)),difference in keratitis score versus placebo (HSV-1 (strain McIntyre); [1]),progression or healing of stromal disease (HSV-1 (strain McIntyre); [1]),"suppression of stromal keratitis (HSV-1 (strain McIntyre); eye drops, Example 1 at 1% w/v or bromovinyldeoxyuridine at 0.5% w/v, hourly nine times a day, 5 days)",difference in iritis scores versus placebo (HSV-1 (strain McIntyre); [2]),reduction in the iritis scores (HSV-1 (strain McIntyre); [2]),"mean keratitis scores (HSV-1 (strain McIntyre); once treatment was initiated, 1% w/v eye drops)"
"Nc1nc2c(ncn2COCCO)c(=O)[nH]1 [Acyclovir, 9-(2-Hydroxyethoxymethyl)guanine, reference compound]",0.08 µg/mL,"potential antiviral activity, particularly against herpes viruses",0.09 µg/mL,0.1 µg/mL,0.04 µg/mL,0.06 µg/mL,0.06 µg/mL,–,–,–,–,–,–
"Cl.NCC(=O)OCCOCn1cnc2c(=O)[nH]c(N)nc21 [Example 1, 9-(2-glycyloxyethoxymethyl)guanine hydrochloride]",0.1 µg/mL,–,0.1 µg/mL,0.1 µg/mL,0.04 µg/mL,0.07 µg/mL,0.08 µg/mL,statistically significant throughout the whole observation period,prevented the progression of stromal disease,effective in suppressing stromal keratitis,significant from day 2 till day 8,significant reduction in the iritis scores,remained nearly constant
"CC(N)C(=O)OCCOCn1cnc2c(=O)[nH]c(N)nc21 (stereo not drawn) [Example 2, 9-(2-0-α-alanyloxyethoxymethyl)guanine hydrochloride]",0.4 µg/mL,–,0.4 µg/mL,0.4 µg/mL,0.07 µg/mL,0.1 µg/mL,0.2 µg/mL,–,–,–,–,–,–
"NCCC(=O)OCCOCn1cnc2c(=O)[nH]c(N)nc21 [Example 3, 9-(2-0-β-alanyloxyethoxymethyl)guanine hydrochloride]",0.2 µg/mL,–,0.5 µg/mL,0.4 µg/mL,0.1 µg/mL,0.1 µg/mL,0.15 µg/mL,–,–,–,–,–,–
